Experimental data: the supplement of paper PMC10307832

Key:
Assay in all cases: relative viability (nuclei count vs DMSO), 5 days (fraction); higher = more cells survive
[1] = compound: CN1C=C(C2=CC=CC=C21)/C=C\3/C4=C(C=CC=N4)NC3=O + O=C(CCCCCCC(=O)Nc1ccccc1)NO [Vorinostat] (partner 1 µM)
Method in brief: (§1)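 Dosing by pin tool came one day after lung cancer cell lines were seeded in 1536-well plates, using either one drug or a fixed anchor-drug dose plus five library-drug doses (not always all listed) in √10 steps. After 5 days, nuclei were counted on 4× images. Relative viability is treated-well nuclei count divided by vehicle-well nuclei count, and values are medians of duplicate plates.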

[2] = compound: CN1C=C(C2=CC=CC=C21)/C=C\3/C4=C(C=CC=N4)NC3=O + Nc1nc2[nH]cc(CCc3ccc(C(=O)N[C@@H](CCC(=O)O)C(=O)O)cc3)c2c(=O)[nH]1 [Pemetrexed] (partner 0.2 µM)
Method in brief: as §1

Trametinib + Alpelisib = compound: CC(=O)Nc1cccc(-n2c(=O)n(C3CC3)c(=O)c3c(Nc4ccc(I)cc4F)n(C)c(=O)c(C)c32)c1 [Trametinib] + Cc1nc(NC(=O)N2CCC[C@H]2C(N)=O)sc1-c1ccnc(C(C)(C)C(F)(F)F)c1 [Alpelisib] (partner 2 µM)
Method in brief: as §1

Trametinib + Bortezomib = compound: CC(=O)Nc1cccc(-n2c(=O)n(C3CC3)c(=O)c3c(Nc4ccc(I)cc4F)n(C)c(=O)c(C)c32)c1 [Trametinib] + CC(C)C[C@H](NC(=O)[C@H](Cc1ccccc1)NC(=O)c1cnccn1)B(O)O [Bortezomib] (partner 0.002 µM)
Method in brief: as §1

Cell Line	relative viability ([1]; first compound 0.02 µM)	relative viability ([1]; first compound 0.06325 µM)	relative viability ([1]; first compound 0.2 µM)	relative viability ([1]; first compound 0.6325 µM)	relative viability ([1]; first compound 2 µM)	relative viability ([2]; first compound 0.02 µM)	relative viability ([2]; first compound 0.06325 µM)	relative viability ([2]; first compound 0.2 µM)	relative viability ([2]; first compound 0.6325 µM)	relative viability ([2]; first compound 2 µM)	relative viability (Trametinib + Alpelisib; first compound 0.0025 µM)	relative viability (Trametinib + Alpelisib; first compound 0.007906 µM)	relative viability (Trametinib + Alpelisib; first compound 0.025 µM)	relative viability (Trametinib + Alpelisib; first compound 0.07906 µM)	relative viability (Trametinib + Alpelisib; first compound 0.25 µM)	relative viability (Trametinib + Bortezomib; first compound 0.0025 µM)	relative viability (Trametinib + Bortezomib; first compound 0.007906 µM)	relative viability (Trametinib + Bortezomib; first compound 0.025 µM)	relative viability (Trametinib + Bortezomib; first compound 0.07906 µM)	relative viability (Trametinib + Bortezomib; first compound 0.25 µM)
NCI-H460	0.958	0.655	0.685	0.37	0.545	0.0583	0.0649	0.0603	0.0702	0.0616	0.417	0.146	0.115	0.0733	0.0121	1.03	0.82	0.544	0.346	0.043
NCI-H23	0.579	0.518	0.537	0.612	0.474	0.678	0.598	0.576	0.788	0.654	0.635	0.509	0.264	0.349	0.208	0.853	1.01	0.364	0.377	0.21
LOU-NH91	0.816	0.851	0.789	0.809	0.848	0.368	0.387	0.365	0.348	0.372	0.674	0.601	0.619	0.545	0.4	0.505	0.489	0.491	0.508	0.334
NCI-H2009	0.69	0.671	0.748	0.766	0.683	1.02	0.947	1.06	1.02	1.02	0.88	0.72	0.444	0.485	0.362	0.929	0.67	0.3	0.332	0.195
NCI-H2126	0.876	0.719	0.744	0.748	0.802	0.694	0.62	0.674	0.669	0.594	0.706	0.608	0.447	0.527	0.45	1.11	0.956	0.685	0.983	0.769
NCI-H1437	0.955	0.823	0.857	0.804	0.71	0.305	0.294	0.344	0.343	0.335	0.908	0.342	0.22	0.219	0.208	0.463	0.257	0.179	0.205	0.174
SK-LU-1	0.67	0.764	0.729	0.727	0.831	0.736	0.919	0.898	1.03	0.946	0.966	0.841	0.7	0.361	0.226	1.13	0.815	0.726	0.623	0.326
NCI-H838	0.679	0.653	0.591	0.601	0.55	0.249	0.235	0.234	0.247	0.246	0.97	0.877		0.709	0.551	0.719	0.563		0.557	0.224
